Paper PMC11873635 (Acta Pharmaceutica Sinica. B, 2024)
pIC50: −log10 of the molar value.

Legend:
[1] = biological target: T1, human SMS1 (Homo sapiens, UniProt Q86VZ5); test: purified SMS enzyme inhibitory assay in vitro; type: biochemical; details: for inhibition at 100 µM: read-out: SMS1 Inhibition @ 100 μmol/L (%)
T1 sequence (Q86VZ5 1-413): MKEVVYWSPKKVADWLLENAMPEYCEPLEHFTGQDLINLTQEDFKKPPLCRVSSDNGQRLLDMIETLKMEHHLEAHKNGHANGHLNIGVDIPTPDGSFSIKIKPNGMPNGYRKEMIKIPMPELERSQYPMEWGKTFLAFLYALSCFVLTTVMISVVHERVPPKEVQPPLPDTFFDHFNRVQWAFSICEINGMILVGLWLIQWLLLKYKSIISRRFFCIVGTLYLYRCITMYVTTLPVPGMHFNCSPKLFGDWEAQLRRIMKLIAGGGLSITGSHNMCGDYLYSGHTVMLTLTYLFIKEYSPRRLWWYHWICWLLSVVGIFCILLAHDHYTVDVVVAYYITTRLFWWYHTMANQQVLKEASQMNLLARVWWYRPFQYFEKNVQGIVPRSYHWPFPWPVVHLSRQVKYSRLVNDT

[2] = biological target: T2, human SMS2 (Homo sapiens, UniProt Q8NHU3); test: purified SMS enzyme inhibitory assay in vitro; type: biochemical; details: for Selectivity ratio: IC50, SMS1/IC50, SMS2; for LLE: pIC50, SMS2 – ClogP; for inhibition at 1 µM: read-out: SMS2 Inhibition @ 1 μmol/L (%)
T2 sequence (Q8NHU3 1-365): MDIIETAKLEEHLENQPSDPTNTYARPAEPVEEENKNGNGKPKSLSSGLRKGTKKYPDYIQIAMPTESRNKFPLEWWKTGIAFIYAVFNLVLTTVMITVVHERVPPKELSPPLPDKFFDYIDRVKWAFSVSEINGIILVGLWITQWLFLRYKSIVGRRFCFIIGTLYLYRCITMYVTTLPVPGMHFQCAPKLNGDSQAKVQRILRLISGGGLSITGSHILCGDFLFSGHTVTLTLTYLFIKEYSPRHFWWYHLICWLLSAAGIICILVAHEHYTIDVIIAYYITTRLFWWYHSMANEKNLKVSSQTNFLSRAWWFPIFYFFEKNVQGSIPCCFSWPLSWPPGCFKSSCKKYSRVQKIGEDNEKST

Row | pIC50 [1] | inhibition at 100 µM [1] [%] | pIC50 [2] | Selectivity ratio [2] | LLE [2] | inhibition at 1 µM [2] [%] | SMILES
1 |  | 56 | 6.51 |  | 2.90 | 64 | O=C(Nc1cccnc1)c1sccc1OCc1ccccc1Cl [14a]
2 |  | 60 | 6.70 |  | 3.02 | 68 | O=C(Nc1cccnc1)c1sccc1OCc1cccc(Cl)c1 [14b]
3 |  | 52 | 4.41 |  | 0.75 | 26 | O=C(Nc1cccnc1)c1sccc1OCc1ccc(Cl)cc1 [14c]
4 | 3.99 | 53 |  |  |  | 79 | O=C(Nc1cccnc1)c1sccc1OCc1cc(F)ccc1Cl [14d]
5 | 3.80 | 33 | 7.15 | 2295 | 4.04 | 82 | COc1ccccc1COc1ccsc1C(=O)Nc1cccnc1 [14e]
6 | 4.11 | 56 | 7.11 | 1004 | 3.67 | 83 | CCOc1ccccc1COc1ccsc1C(=O)Nc1cccnc1 [14f]
7 | 4.31 | 74 | 6.99 | 477 | 3.18 | 78 | CCCOc1ccccc1COc1ccsc1C(=O)Nc1cccnc1 [14g]
8 | 4.70 | 81 | 7.19 | 313 | 3.14 | 85 | CCCCOc1ccccc1COc1ccsc1C(=O)Nc1cccnc1 [14h]
9 | 5.00 | 88 | 7.13 | 142 | 2.62 | 86 | CCCCCOc1ccccc1COc1ccsc1C(=O)Nc1cccnc1 [14i]
10 | 5.22 | 93 | 7.17 | 85 | 2.52 | 88 | CCCCCCOc1ccccc1COc1ccsc1C(=O)Nc1cccnc1 [14j]
11 | 4.89 | 90 | 7.54 | 459 | 2.37 | 91 | CCCCCCCOc1ccccc1COc1ccsc1C(=O)Nc1cccnc1 [14k]
12 | 4.89 | 86 | 7.46 | 360 | 1.58 | 91 | CCCCCCCCCOc1ccccc1COc1ccsc1C(=O)Nc1cccnc1 [14m]
13 | 4.89 | 87 | 7.51 | 409 | 1.39 | 92 | CCCCCCCCCCOc1ccccc1COc1ccsc1C(=O)Nc1cccnc1 [14n]
14 | 4.89 | 90 | 7.54 | 445 | 0.98 | 95 | CCCCCCCCCCCOc1ccccc1COc1ccsc1C(=O)Nc1cccnc1 [14o]
15 | 4.74 | 81 | 7.47 | 540 | 0.64 | 93 | CCCCCCCCCCCCOc1ccccc1COc1ccsc1C(=O)Nc1cccnc1 [14p]
16 | 5.00 | 92 | 7.82 | 649 | 1.83 | 98 | CCCCCCCCOc1c(Cl)cccc1COc1ccsc1C(=O)Nc1cccnc1 [14q]
17 | 5.10 | 85 | 6.95 | 70 | 1.01 | 91 | CCCCCCCCOc1ccc(Cl)cc1COc1ccsc1C(=O)Nc1cccnc1 [14r]

Further lines, the compound ahead of its results:

Row | SMILES | pIC50 [1] | inhibition at 100 µM [1] [%] | pIC50 [2] | Selectivity ratio [2] | LLE [2] | inhibition at 1 µM [2] [%]
18 | O=C(Nc1cccnc1)c1sccc1OCc1ccccc1 [5a] | 3.66 | 20 | 6.40 | 547 | 3.33 | 66
19 | O=C(Nc1cccnc1)c1ncccc1OCc1ccccc1 [5b] |  | -18 |  |  |  | 
20 | Cc1cc(OCc2ccccc2)c(C(=O)Nc2cccnc2)s1 [5c] |  | -14 |  |  |  | 34
21 | Cc1nc(OCc2ccccc2)c(C(=O)Nc2cccnc2)s1 [5d] |  | 10 |  |  |  | 
22 | O=C(Nc1cccnc1)c1sc([N+](=O)[O-])cc1OCc1ccccc1 [5e] |  | -4 |  |  |  | 
23 | O=C(Nc1cccnc1)c1scc(Br)c1OCc1ccccc1 [5f] |  | 14 |  |  |  | 42
24 | O=C(Nc1cccnc1F)c1sccc1OCc1ccccc1 [7a] |  | 53 | 5.75 |  | 2.31 | 41
25 | O=C(Nc1cnccc1Cl)c1sccc1OCc1ccccc1 [7b] |  | -39 |  |  |  | 7
26 | O=C(Nc1cncc(F)c1)c1sccc1OCc1ccccc1 [7c] |  | 52 |  |  |  | 56
27 | O=C(Nc1ccc(F)nc1)c1sccc1OCc1ccccc1 [7d] |  | 57 |  |  |  | 12
28 | Cc1ncccc1NC(=O)c1sccc1OCc1ccccc1 [7e] |  | -20 |  |  |  | 3
29 | Cc1ccncc1NC(=O)c1sccc1OCc1ccccc1 [7f] |  | -17 |  |  |  | -4
30 | Cc1cncc(NC(=O)c2sccc2OCc2ccccc2)c1 [7g] |  | 28 |  |  |  | 12
31 | Cc1ccc(NC(=O)c2sccc2OCc2ccccc2)cn1 [7h] |  | 22 |  |  |  | -3
32 | O=C(Nc1cccnn1)c1sccc1OCc1ccccc1 [7i] |  | 22 |  |  |  | 25
33 | O=C(Nc1ccnnc1)c1sccc1OCc1ccccc1 [7j] |  | 5 |  |  |  | -16
34 | O=C(Nc1ccccc1)c1sccc1OCc1ccccc1 [7k] |  |  |  |  |  | 3
35 | O=C(Nc1cccnc1)c1sccc1OCc1cccc2ccccc12 [9a] |  | 39 |  |  |  | 86
36 | O=C(Nc1cccnc1)c1sccc1OCc1ccc2ccccc2c1 [9b] |  | 42 |  |  |  | 36
37 | O=C(Nc1cccnc1)c1sccc1OCc1c2ccccc2cc2ccccc12 [9c] |  | 5 |  |  |  | 79
38 | O=C(Nc1cccnc1)c1sccc1OCc1cccc2cccnc12 [9d] |  | 21 |  |  |  | 45
39 | CCCCCCCCOc1ccsc1C(=O)Nc1cccnc1 [9e] |  | 67 |  |  |  | -11
40 | CN(C(=O)c1sccc1OCc1ccccc1)c1cccnc1 [compound 6] |  | 20 |  |  |  | 28
41 | O=C(Nc1cccnc1)c1sccc1OS(=O)(=O)c1ccccc1 [compound 10] |  |  |  |  |  | -3
